± gives the standard deviation of the averaged measurements.
How the values were obtained:
Assay in all cases: surviving fraction relative to DMSO-only wells; higher = less growth inhibition
Conditions in all cases: exposure time: 5 days
[1] = compound: CC/C(=C(\c1ccc(O)cc1)c1ccc(OCCN(C)C)cc1)c1ccccc1 [AFIMOXIFENE]
Procedure, shortened: (§1)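 Log-phase tumour cell lines, 250–500 cells per well in 384-well plates, received inhibitors at 0.5, 1, 5, 10, 50, 100, 500 and 1000 nM continuously for five days, starting 24 hours after seeding. Viability was quantified with CellTiter-Glo luminescence and normalised to the median of DMSO-only wells to give surviving fraction. Three screens were run per line, and a line stayed in only with replicate Pearson r >0.7 and median Z' >0.3.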

[2] = compound: Cc1cn(-c2cc(NC(=O)c3ccc(C)c(Nc4nccc(-c5cccnc5)n4)c3)cc(C(F)(F)F)c2)cn1 [NILOTINIB]
Procedure, shortened: as §1

[3] = compound: C[C@@H]1CN(CC(=O)Nc2ccc3c(c2)Cc2cccc(-c4cc(=O)cc(N5CCOCC5)o4)c2S3)C[C@H](C)O1
Procedure, shortened: as §1

[4] = compound: Cc1ccc(NC(=O)c2ccc(CN3CCN(C)CC3)cc2)cc1Nc1nccc(-c2cccnc2)n1 [IMATINIB]
Procedure, shortened: as §1

[5] = compound: C=CCn1c(=O)c2cnc(Nc3ccc(N4CCN(C)CC4)cc3)nc2n1-c1cccc(C(C)(C)O)n1 [MK-1775]
Procedure, shortened: as §1

[6] = compound: Cc1c(N)nc([C@H](CC(N)=O)NC[C@H](N)C(N)=O)nc1C(=O)N[C@H](C(=O)N[C@H](C)[C@@H](O)[C@H](C)C(=O)N[C@H](C(=O)NCCc1nc(-c2nc(C(=O)NCCC[S+](C)C)cs2)cs1)[C@@H](C)O)[C@@H](OC1OC(CO)C(O)C(O)C1OC1OC(CO)C(O)C(OC(N)=O)C1O)c1cnc[nH]1 [BLEOMYCIN]
Procedure, shortened: as §1

[7] = compound: CCc1cc(Nc2nccc(-c3c(-c4ccc(OC)c(C(=O)Nc5c(F)cccc5F)c4)nc4ccccn34)n2)c(OC)cc1N1CCC(N2CCN(S(C)(=O)=O)CC2)CC1
Procedure, shortened: as §1

[8] = compound: O=C(CCCCCCC(=O)Nc1ccccc1)NO [VORINOSTAT]
Procedure, shortened: as §1

[9] = compound: COc1cc2nccc(Oc3ccc(NC(=O)NC4CC4)c(Cl)c3)c2cc1C(N)=O [LENVATINIB]
Procedure, shortened: as §1

[10] = compound: Cn1ncnc1[C@H]1c2n[nH]c(=O)c3cc(F)cc(c23)N[C@@H]1c1ccc(F)cc1 [BMN-673]
Procedure, shortened: as §1

[11] = compound: COc1cc2nccc(Oc3ccc(NC(=O)C4(C(=O)Nc5ccc(F)cc5)CC4)cc3)c2cc1OC [CABOZANTINIB]
Procedure, shortened: as §1

[12] = compound: C[C@H](CN(C)C)Oc1nc(Nc2cc3cccc(Cl)c3cn2)cnc1C#N
Procedure, shortened: as §1

[13] = compound: COc1ccc(-c2cc3c(C)nc(N)nc3n([C@H]3CC[C@H](OCCO)CC3)c2=O)cn1
Procedure, shortened: as §1

[14] = compound: Cn1c(=O)n(-c2ccc(C(C)(C)C#N)cc2)c2c3cc(-c4cnc5ccccc5c4)ccc3ncc21 [BEZ-235]
Procedure, shortened: as §1

## HS57T BREAST
[1]; 0.5 nM
  surviving fraction: 1.04 ± 0.086
[1]; 1 nM
  surviving fraction: 1.05 ± 0.088
[1]; 5 nM
  surviving fraction: 1.12 ± 0.062
[1]; 10 nM
  surviving fraction: 1.156 ± 0.011
[1]; 50 nM
  surviving fraction: 1.12 ± 0.071
[1]; 100 nM
  surviving fraction: 1.19 ± 0.044
[1]; 500 nM
  surviving fraction: 1.09 ± 0.038
[1]; 1000 nM
  surviving fraction: 1.08 ± 0.057
[2]; 0.5 nM
  surviving fraction: 1.02 ± 0.12
[2]; 1 nM
  surviving fraction: 1.05 ± 0.04
[2]; 5 nM
  surviving fraction: 1.05 ± 0.066
[2]; 10 nM
  surviving fraction: 1.06 ± 0.015
[2]; 50 nM
  surviving fraction: 0.99 ± 0.038
[2]; 100 nM
  surviving fraction: 1.08 ± 0.11
[2]; 500 nM
  surviving fraction: 0.983 ± 0.03
[2]; 1000 nM
  surviving fraction: 0.967 ± 0.064
[3]; 0.5 nM
  surviving fraction: 1.1 ± 0.058
[3]; 1 nM
  surviving fraction: 1.05 ± 0.055
[3]; 5 nM
  surviving fraction: 1.16 ± 0.017
[3]; 10 nM
  surviving fraction: 1.1 ± 0.03
[3]; 50 nM
  surviving fraction: 1.08 ± 0.042
[3]; 100 nM
  surviving fraction: 1.08 ± 0.084
[3]; 500 nM
  surviving fraction: 0.945 ± 0.069
[3]; 1000 nM
  surviving fraction: 0.87 ± 0.041
[4]; 1 nM
  surviving fraction: 1 ± 0.062
[4]; 5 nM
  surviving fraction: 1.14 ± 0.016
[4]; 10 nM
  surviving fraction: 1.14 ± 0.024
[4]; 50 nM
  surviving fraction: 1.17 ± 0.069
[4]; 100 nM
  surviving fraction: 1.09 ± 0.056
[4]; 500 nM
  surviving fraction: 1.04 ± 0.034
[4]; 1000 nM
  surviving fraction: 1.01 ± 0.093
[5]; 0.5 nM
  surviving fraction: 0.969 ± 0.04
[5]; 1 nM
  surviving fraction: 1.04 ± 0.017
[5]; 5 nM
  surviving fraction: 1.06 ± 0.06
[5]; 10 nM
  surviving fraction: 0.963 ± 0.029
[5]; 50 nM
  surviving fraction: 0.597 ± 0.018
[5]; 100 nM
  surviving fraction: 0.336 ± 0.041
[5]; 500 nM
  surviving fraction: 0.134 ± 0.0042
[5]; 1000 nM
  surviving fraction: 0.098 ± 0.011
[6]; 0.5 nM
  surviving fraction: 0.868 ± 0.026
[6]; 1 nM
  surviving fraction: 0.91 ± 0.11
[6]; 5 nM
  surviving fraction: 0.9263 ± 0.0091
[6]; 10 nM
  surviving fraction: 0.918 ± 0.057
[6]; 50 nM
  surviving fraction: 0.842 ± 0.032
[6]; 100 nM
  surviving fraction: 0.723 ± 0.034
[6]; 500 nM
  surviving fraction: 0.36 ± 0.041
[6]; 1000 nM
  surviving fraction: 0.225 ± 0.0065
[7]; 0.5 nM
  surviving fraction: 0.949 ± 0.082
[7]; 1 nM
  surviving fraction: 1.01 ± 0.063
[7]; 5 nM
  surviving fraction: 1.05 ± 0.021
[7]; 10 nM
  surviving fraction: 1.05 ± 0.018
[7]; 50 nM
  surviving fraction: 1.02 ± 0.052
[7]; 100 nM
  surviving fraction: 1.06 ± 0.085
[7]; 500 nM
  surviving fraction: 0.992 ± 0.036
[7]; 1000 nM
  surviving fraction: 0.945 ± 0.024
[8]; 0.5 nM
  surviving fraction: 0.935 ± 0.066
[8]; 1 nM
  surviving fraction: 0.992 ± 0.038
[8]; 5 nM
  surviving fraction: 1.01 ± 0.073
[8]; 10 nM
  surviving fraction: 1.071 ± 0.009
[8]; 50 nM
  surviving fraction: 1.04 ± 0.052
[8]; 100 nM
  surviving fraction: 0.995 ± 0.056
[8]; 500 nM
  surviving fraction: 0.804 ± 0.049
[8]; 1000 nM
  surviving fraction: 0.475 ± 0.026
[9]; 0.5 nM
  surviving fraction: 1.04 ± 0.027
[9]; 1 nM
  surviving fraction: 1.01 ± 0.085
[9]; 5 nM
  surviving fraction: 1.084 ± 0.0086
[9]; 10 nM
  surviving fraction: 1.14 ± 0.049
[9]; 50 nM
  surviving fraction: 1.1 ± 0.042
[9]; 100 nM
  surviving fraction: 1.09 ± 0.064
[9]; 500 nM
  surviving fraction: 0.831 ± 0.029
[9]; 1000 nM
  surviving fraction: 0.74 ± 0.023
[10]; 0.5 nM
  surviving fraction: 1.04 ± 0.03
[10]; 1 nM
  surviving fraction: 0.984 ± 0.037
[10]; 5 nM
  surviving fraction: 1.04 ± 0.076
[10]; 10 nM
  surviving fraction: 1.03 ± 0.076
[10]; 50 nM
  surviving fraction: 0.969 ± 0.084
[10]; 100 nM
  surviving fraction: 0.82 ± 0.074
[10]; 500 nM
  surviving fraction: 0.619 ± 0.057
[10]; 1000 nM
  surviving fraction: 0.513 ± 0.04
[11]; 0.5 nM
  surviving fraction: 0.884 ± 0.062
[11]; 1 nM
  surviving fraction: 0.87 ± 0.07
[11]; 5 nM
  surviving fraction: 0.961 ± 0.024
[11]; 10 nM
  surviving fraction: 0.983 ± 0.04
[11]; 50 nM
  surviving fraction: 1.01 ± 0.037
[11]; 100 nM
  surviving fraction: 0.972 ± 0.078
[11]; 500 nM
  surviving fraction: 0.894 ± 0.066
[11]; 1000 nM
  surviving fraction: 0.888 ± 0.034
[12]; 0.5 nM
  surviving fraction: 0.943 ± 0.054
[12]; 1 nM
  surviving fraction: 0.933 ± 0.048
[12]; 5 nM
  surviving fraction: 1.04 ± 0.039
[12]; 10 nM
  surviving fraction: 1.06 ± 0.041
[12]; 50 nM
  surviving fraction: 1.03 ± 0.025
[12]; 100 nM
  surviving fraction: 0.929 ± 0.057
[12]; 500 nM
  surviving fraction: 0.119 ± 0.0095
[12]; 1000 nM
  surviving fraction: 0.0913 ± 0.011
[13]; 0.5 nM
  surviving fraction: 0.946 ± 0.059
[13]; 1 nM
  surviving fraction: 1.01 ± 0.07
[13]; 5 nM
  surviving fraction: 0.959 ± 0.026
[13]; 10 nM
  surviving fraction: 0.939 ± 0.033
[13]; 50 nM
  surviving fraction: 0.6 ± 0.023
[13]; 100 nM
  surviving fraction: 0.429 ± 0.034
[13]; 500 nM
  surviving fraction: 0.148 ± 0.004
[13]; 1000 nM
  surviving fraction: 0.117 ± 0.0076
[14]; 0.5 nM
  surviving fraction: 1.08 ± 0.039
[14]; 1 nM
  surviving fraction: 1.03 ± 0.033
[14]; 5 nM
  surviving fraction: 0.916 ± 0.027
[14]; 10 nM
  surviving fraction: 0.826 ± 0.016
[14]; 50 nM
  surviving fraction: 0.335 ± 0.021
[14]; 100 nM
  surviving fraction: 0.258 ± 0.0071
[14]; 500 nM
  surviving fraction: 0.186 ± 0.009
[14]; 1000 nM
  surviving fraction: 0.181 ± 0.011

Reference: the supplement of paper PMC6045584
